According to patent publication US12313635B2, “Biomarker for thoracic aortic aneurysm” (THE REGENTS OF THE UNIVERSITY OF CALIFORNIA, priority 2018, dated 2025):

What was measured:
[1] = test system: H4B; experiment: Aortic and plasma tetrahydrobiopterin (H4B) levels by HPLC; type: in vivo; details: Fbn1^+/+ and Fbn1^C1039G/+ mice, oral FA vs chow diet
Protocol: (§1) FA treatment started at 4 weeks of age, and lasted through the entire study period of 8 weeks till harvest.
Aortic H4B and plasma H4B were measured using HPLC as previously described^19-22, 26, 27, 32, 33, 35-37. For the aorta, freshly isolated aortas were lysed in H4B lysis buffer (0.1 M phosphoric acid, 1 mM EDTA, 10 mM dl-dithiothreitol) and then centrifuged at 12,000 g for 3 min at 4° C. in the dark. For plasma, equal volumes of plasma and H4B lysis buffer were mixed and incubated on ice for 20 min in the dark and then centrifuged at 12,000 g for 3 min at 4° C. in the dark. The supernatant for both the aorta and plasma was subjected to oxidation in acidic (0.2 M trichloroacetic acid with 2.5% 12 and 10% KI) and alkalytic solutions (0.1 M NaOH with 0.9% 12 and 1.5% KI). After centrifugation, 10 μl of the supernatant was injected into a HPLC system equipped with a fluorescent detector (SHIMADZU AMERICA INC, Carlsbad, CA, USA). Excitation and emission wavelengths of 350 nm and 450 nm were used to detect H4B and its oxidized species. H4B concentration was calculated as previously described ^38, 39.

[2] = test system: eNOS; experiment: Aortic superoxide production and eNOS uncoupling activity (L-NAME-sensitive superoxide) by electron spin resonance; type: in vivo, mice
Protocol: as §1
Aortic superoxide was measured by ESR as previously described^19-22, 26-33. Briefly, freshly isolated aortas were homogenized on icein lysis buffer containing 1:100 protease inhibitor cocktail, and centrifuged at 12,000 g for 15 min. Protein content of the supernatant was determined using a protein assay kit (Bio-Rad, #500-0113, #500-0114, #500-0115). […]
(§2) Four weeks old heterozygous Fbn1^C1039G/+ male animals were treated with TGFβ neutralizing antibody (anti-TGFβ, clone 1D11, Bio X Cell) or isotype (IgG, clone MOPC21, Bio X Cell) as previously shown^40. […] Aortic superoxide production and eNOS uncoupling activity were determined after 4 weeks injection as described above.
Firstly, ESR was used to measure the aortic superoxide production with or without L-NAME, an inhibitor for NOS. If eNOS is functional and coupled, its inhibition by L-NAME will increase the measured superoxide due to lack of scavenging effects of NO on superoxide. However, if eNOS is dysfunctional and uncoupled, it produces superoxide and the inhibition with L-NAME will reduce measured superoxide.

[3] = test system: Fbn1^C1039G/+ Marfan Syndrome (MFS) mice; experiment: Ultrasound imaging (echocardiography) of aortic root and abdominal aorta diameters; type: in vivo; details: FA food (15 mg/kg/day from 4 weeks of age) vs chow diet
Description: All experimental procedures were approved by the Institutional Animal Care and Usage committee at the University of California, Los Angeles (UCLA). Original heterozygous Fbn1^C1039G/+ male animals were purchased from Jackson Labs (Bar Harbor, ME, Strain B6.129-Fbn1^tm1Hcd/J, stock #012885). Heterozygous mice develop proximal aortic aneurysms, mitral valve thickenings, pulmonary alveolar septation defects, mild thoracic kyphosis, and skeletal myopathy, but 90% reportedly live to one year of age. This strain was backcrossed to C57BL/6 for more than nine generations by the donating laboratory^14. All pups were genotyped using PCR (FIG. 2) as per instructions by Jackson Labs.
as §1
Animals were anesthetized with isoflurane (˜[…]), and secured onto a temperature controlled table to maintain temperature at 37° C. Hair from the abdomen and the chest were removed with a hair removal cream (Nair). […] All images were recorded and saved for later offline aortic dimension analysis.
as §2

[4] = test system: NO bioavailability in aortic tissues; experiment: Aortic NO bioavailability by electron spin resonance; type: in vivo; details: aortas of Fbn1^C1039G/+ mice, age 8 and 12 weeks, oral FA
Protocol: FA treatment started at 4 weeks of age, and lasted through the entire study period of 8 weeks till harvest. Aortic N O production was also measured using ESR as previous described^19-22, 26-29, 32-34. Briefly, freshly isolated aortas were cut into 2 mm rings, and then incubated in freshly prepared NO specific spin trap Fe^2+(DETC)2 (0.5 mmol/L) in nitrogen bubbled, modified Krebs/HEPES buffer (as described above) at 37° C. for 60 min, in the presence of calcium ionophore A23187 (10 μmol/L). The aortic rings were then snap frozen in liquid nitrogen and loaded into a finger Dewarfor measurement with ESR. The instrument settings were as the following: Center field, 3440; Sweep width, 100 G: microwave frequency, 9.796 GHz; microwave power 13.26 mW; modulation amplitude, 9.82 G; 512 points of resolution; and receiver gain 356.

[5] = test system: DHFR; experiment: Western blotting of DHFR and eNOS expression in aortic endothelial cells; type: in vivo, mice; details: aortic ECs of Fbn1^+/+ and Fbn1^C1039G/+ animals after FA treatment
Protocol: as §1
Western blotting was performed following standard protocols, using 12.5% SDS/PAGE gel and nitrocellulose membranes. Primary antibodies and their dilutions used were: DHFR (1:500, Novus Biologicals, H00001719-MO1), β-actin (1:3000, Sigma-Aldrich, A2066), eNOS (1:2000, BD Transduction Laboratories, 610297), TGFβ (1:500, Abcam, ab92486), NOX4 (1:300, Novus Biologicals, NB110-58849SS), and GTPCH 1 (1:500, Abbiotec, 250680).
Endothelial cells (ECs) were isolated from freshly prepared aortas, Western blot was used to detect DHFR expression in aortic ECs and HPLC was performed to assess DHFR activity in the isolated ECs and the denuded aortas of the Fbn1^+/+ and Fbn1^C1039G/+ animals. […] As shown in FIGS. 6D & 6E, DHFR activity was measured via HPLC from both the isolated ECs (FIG. 6D) and the denuded aortas (FIG. 6E).

[6] = test system: DHFR; experiment: DHFR activity by HPLC in isolated ECs and denuded aortas; type: in vivo; details: Fbn1^C1039G/+ and Fbn1^+/+ mice, oral FA treatment
Protocol: as §1
DHFR activity was measured from isolated EC or denuded aorticring lysates as previously described^19, 22, 26. Briefly, lysates were incubated in a DHFR assay buffer (0.1 mol/L potassium phosphate dibasic, 1 mmol/L DTT, 0.5 mmol/L KCl, 1 mmol/L EDTA, and 20 mmol/L sodium ascorbate at pH 7.4) with NADPH (200 μmol/L) and the substrate dihydrofolate (50 μmol/L) at 37° C. for 20 min in the dark. The product of the reaction, tetrahydrofolate (THF), was measured using a HPLC system (SHIMADZU AMERICA INC, Carlsbad, CA, USA) with a C-18 column (Alltech, Deerfield, MA, USA) using water based mobile phase consisting of 7% acetonitrile and 5 mmol/L of potassium phosphate dibasic at pH 2.3. The signal was detected using a fluorescent detector at 295 nm excitation and 365 nm emission. The THF content was calculated against a standard curve prepared using THF solutions in assay buffer. Data are presented as nmol production of THF per min per mg protein.

[7] = test system: Ang II infused hph-1 mice and Ang II-infused apoE null mice; details: cited from earlier work

Structure (SMILES): Nc1nc2ncc(CNc3ccc(C(=O)N[C@@H](CCC(=O)O)C(=O)O)cc3)nc2c(=O)[nH]1 [FA, folic acid]
- H4B levels in plasma [1]: substantially restored
- H4B levels in the aortas [1]: substantially restored
- L-NAME-sensitive superoxide production (eNOS uncoupling activity) ([2]; aortas of Fbn1^C1039G/+ mice at 8 and 12 week old, oral FA): completely attenuated
- superoxide production ([2]; aortas of Fbn1^C1039G/+ mice, FA diet): reduce superoxide production
- size (diameter) of abdominal aortas [3]: substantially smaller
- size (diameter) of aortic roots [3]: substantially smaller
- NO bioavailability [4]: markedly improved
- expression of DHFR [5]: increased
- DHFR activity in the denuded aortas [6]: substantially increased
- DHFR activity in the isolated ECs [6]: substantially increased
- AAA formation ([7]; Ang II infused hph-1 mice and Ang II-infused apoE null mice, oral administration): completely or largely attenuated
- plasma and tissue H4B levels ([7]; angiotensin II infused hph-1 and apoE null mice (AAA models)): restored
